Experimental data from patent US20230139171A1 (SITA Information Networking Computing UK Limited, priority 2019, published 2023).

Columns and labels:
Format in all cases: cell-based
human TLR8 = target: T1, human TLR8 (Homo sapiens, UniProt Q9NR97); test: TLR8 inhibition reporter assay (HEK-Blue cells, SEAP reporter, R848 stimulation); settings: HEK-Blue cells overexpressing human TLR8, SEAP reporter, R848 15.9 μM; read-out: TLR8 IC50
T1 construct: host or cells: HEK-Blue cells
T1 sequence (Q9NR97 27-1041): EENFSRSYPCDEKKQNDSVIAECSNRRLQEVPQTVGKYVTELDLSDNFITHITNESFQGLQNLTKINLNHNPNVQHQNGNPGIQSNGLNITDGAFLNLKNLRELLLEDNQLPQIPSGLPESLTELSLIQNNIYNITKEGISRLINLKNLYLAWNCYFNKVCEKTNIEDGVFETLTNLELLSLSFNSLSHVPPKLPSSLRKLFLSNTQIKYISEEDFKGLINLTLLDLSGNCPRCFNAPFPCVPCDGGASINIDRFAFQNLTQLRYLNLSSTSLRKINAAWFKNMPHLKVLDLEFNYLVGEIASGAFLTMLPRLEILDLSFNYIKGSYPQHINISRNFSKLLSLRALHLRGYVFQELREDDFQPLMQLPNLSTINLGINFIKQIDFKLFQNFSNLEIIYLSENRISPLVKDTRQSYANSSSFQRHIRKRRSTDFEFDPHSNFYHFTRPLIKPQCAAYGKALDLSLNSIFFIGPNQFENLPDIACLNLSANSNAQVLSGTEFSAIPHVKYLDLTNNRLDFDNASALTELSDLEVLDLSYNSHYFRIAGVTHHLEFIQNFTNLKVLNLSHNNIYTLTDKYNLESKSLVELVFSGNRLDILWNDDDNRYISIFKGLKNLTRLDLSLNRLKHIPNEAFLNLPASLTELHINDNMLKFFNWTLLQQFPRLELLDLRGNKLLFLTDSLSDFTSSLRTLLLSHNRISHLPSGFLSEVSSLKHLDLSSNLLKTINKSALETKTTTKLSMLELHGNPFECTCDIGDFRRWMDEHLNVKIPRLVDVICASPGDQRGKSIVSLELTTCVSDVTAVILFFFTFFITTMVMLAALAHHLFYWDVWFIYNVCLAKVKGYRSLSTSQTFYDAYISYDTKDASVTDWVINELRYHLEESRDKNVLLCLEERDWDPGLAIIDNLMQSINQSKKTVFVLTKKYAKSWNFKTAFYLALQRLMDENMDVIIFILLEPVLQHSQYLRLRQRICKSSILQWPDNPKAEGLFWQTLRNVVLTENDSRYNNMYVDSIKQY
Method in brief: (§1)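 Screening used HEK-Blue cells overexpressing one human TLR (7, 8 or 9) and an IFN-β minimal promoter–NF-κB/AP-1 SEAP construct. Stimulation lasted 22 h at 37 °C with receptor-specific agonist: gardiquimod, R848 or ODN2006 at 7.5 μM, 15.9 μM and 5 nM.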

human TLR9 = target: T2, human TLR9 (Homo sapiens, UniProt Q9NR96); test: TLR9 inhibition reporter assay (HEK-Blue cells, SEAP reporter, ODN2006 stimulation); settings: HEK-Blue cells overexpressing human TLR9, SEAP reporter, ODN2006 5 nM
T2 construct: host or cells: HEK-Blue cells
T2 sequence (Q9NR96 26-1032): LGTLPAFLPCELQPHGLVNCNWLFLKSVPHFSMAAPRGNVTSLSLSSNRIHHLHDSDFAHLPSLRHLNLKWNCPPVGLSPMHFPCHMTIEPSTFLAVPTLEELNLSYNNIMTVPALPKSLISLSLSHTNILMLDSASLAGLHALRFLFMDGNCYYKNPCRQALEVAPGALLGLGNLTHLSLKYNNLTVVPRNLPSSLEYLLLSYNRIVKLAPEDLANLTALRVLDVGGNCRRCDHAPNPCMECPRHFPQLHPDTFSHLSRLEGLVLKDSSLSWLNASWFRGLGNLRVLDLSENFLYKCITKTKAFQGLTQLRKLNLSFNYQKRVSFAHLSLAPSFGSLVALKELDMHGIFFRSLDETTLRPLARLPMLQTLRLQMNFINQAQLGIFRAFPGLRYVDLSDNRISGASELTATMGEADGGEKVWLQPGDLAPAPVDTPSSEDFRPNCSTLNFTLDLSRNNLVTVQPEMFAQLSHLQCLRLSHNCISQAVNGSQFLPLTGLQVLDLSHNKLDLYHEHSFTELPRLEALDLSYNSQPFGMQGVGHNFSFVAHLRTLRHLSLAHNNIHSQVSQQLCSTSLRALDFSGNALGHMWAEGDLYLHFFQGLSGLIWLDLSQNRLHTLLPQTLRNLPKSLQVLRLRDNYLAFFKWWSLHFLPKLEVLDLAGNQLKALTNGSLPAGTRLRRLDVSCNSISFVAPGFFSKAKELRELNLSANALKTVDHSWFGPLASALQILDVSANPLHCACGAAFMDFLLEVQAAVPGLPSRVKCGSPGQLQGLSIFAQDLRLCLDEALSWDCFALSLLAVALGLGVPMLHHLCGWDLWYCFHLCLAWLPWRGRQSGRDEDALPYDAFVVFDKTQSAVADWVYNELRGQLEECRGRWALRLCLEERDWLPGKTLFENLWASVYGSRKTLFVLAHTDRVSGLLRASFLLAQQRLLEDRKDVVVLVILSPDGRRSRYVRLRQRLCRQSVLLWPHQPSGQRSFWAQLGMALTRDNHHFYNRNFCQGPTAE
Method in brief: as §1

human TLR7 = target: T3, human TLR7 (Homo sapiens, UniProt Q9NYK1); test: TLR7 inhibition reporter assay (HEK-Blue cells, SEAP reporter, gardiquimod stimulation); settings: HEK-Blue cells overexpressing human TLR7, SEAP reporter, gardiquimod 7.5 μM; read-out: TLR7 IC50
T3 construct: host or cells: HEK-Blue cells
T3 sequence (Q9NYK1 27-1049): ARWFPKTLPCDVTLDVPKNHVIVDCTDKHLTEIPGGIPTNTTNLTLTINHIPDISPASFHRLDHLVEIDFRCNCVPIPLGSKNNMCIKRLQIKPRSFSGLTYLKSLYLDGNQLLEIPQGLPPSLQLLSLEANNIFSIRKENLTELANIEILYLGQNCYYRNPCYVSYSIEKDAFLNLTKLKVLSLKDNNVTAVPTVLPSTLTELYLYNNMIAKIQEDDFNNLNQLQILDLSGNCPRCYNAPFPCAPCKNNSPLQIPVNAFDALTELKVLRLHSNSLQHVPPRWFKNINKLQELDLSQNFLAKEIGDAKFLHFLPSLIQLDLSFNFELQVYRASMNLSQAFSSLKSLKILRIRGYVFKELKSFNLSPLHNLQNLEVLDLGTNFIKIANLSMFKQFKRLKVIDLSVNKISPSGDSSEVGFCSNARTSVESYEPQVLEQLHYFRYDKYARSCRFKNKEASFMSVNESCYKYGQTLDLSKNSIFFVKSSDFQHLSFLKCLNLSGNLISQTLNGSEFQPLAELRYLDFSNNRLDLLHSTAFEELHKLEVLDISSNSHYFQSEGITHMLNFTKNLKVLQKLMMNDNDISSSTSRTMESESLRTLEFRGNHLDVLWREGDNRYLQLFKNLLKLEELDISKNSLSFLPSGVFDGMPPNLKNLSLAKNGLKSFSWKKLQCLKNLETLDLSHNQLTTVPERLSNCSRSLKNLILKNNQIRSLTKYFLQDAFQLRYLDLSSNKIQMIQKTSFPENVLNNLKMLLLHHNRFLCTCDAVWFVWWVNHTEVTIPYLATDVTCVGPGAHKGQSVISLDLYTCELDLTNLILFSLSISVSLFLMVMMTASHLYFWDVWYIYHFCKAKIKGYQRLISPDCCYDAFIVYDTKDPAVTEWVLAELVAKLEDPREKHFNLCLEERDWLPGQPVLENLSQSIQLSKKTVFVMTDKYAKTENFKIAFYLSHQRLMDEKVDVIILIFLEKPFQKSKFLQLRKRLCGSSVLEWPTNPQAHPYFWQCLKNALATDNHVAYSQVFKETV
Method in brief: as §1

SMILES	IC50 (human TLR8) [nM]	IC50 (human TLR9) [nM]	IC50 (human TLR7) [nM]
Cc1cc(-c2[nH]c3sc(C4CCNCC4)nc3c2C(C)C)cn2ncnc12 [Example 2, 6-isopropyl-5-(8-methyl-[1,2,4]triazolo[1,5-a]pyridin-6-yl)-2-(piperidin-4-yl)-4H-pyrrolo[3,2-d]thiazole]	5.82	6560	2.27
Cc1cc(-c2[nH]c3sc(C4CCNCC4)nc3c2C(C)C)cc(C)n1 [Example 4, 5-(2,6-dimethylpyridin-4-yl)-6-isopropyl-2-(piperidin-4-yl)-4H-pyrrolo[3,2-d]thiazole]	33.9	287	5.52
COc1cc(-c2[nH]c3sc(C4CCN(C(=O)CN(C)C)CC4)nc3c2C(C)C)cn2ncnc12 [Example 6, 2-(dimethylamino)-1-(4-(6-isopropyl-5-(8-methoxy-[1,2,4]triazolo[1,5-a]pyridin-6-yl)-4H-pyrrolo[3,2-d]thiazol-2-yl)piperidin-1-yl)ethan-1-one]	20.9	1100	2.05
COc1cc(-c2[nH]c3sc(C4CCN(CC(=O)N(C)C)CC4)nc3c2C(C)C)cn2ncnc12 [Example 7, 2-(4-(6-isopropyl-5-(8-methoxy-[1,2,4]triazolo[1,5-a]pyridin-6-yl)-4H-pyrrolo[3,2-d]thiazol-2-yl)piperidin-1-yl)-N,N-dimethylacetamide]	6.59	5470	7.8
COc1cc(-c2[nH]c3sc(C4CCN(C5COC5)CC4)nc3c2C(C)C)cn2ncnc12 [Example 11, 6-isopropyl-5-(8-methoxy-[1,2,4]triazolo[1,5-a]pyridin-6-yl)-2-(1-(oxetan-3-yl)piperidin-4-yl)-4H-pyrrolo[3,2-d]thiazole]	9.31	18500	3.78

The next compounds have a lower IC50 (human TLR8) than those just listed; values first:

IC50 (human TLR8) [nM]	IC50 (human TLR9) [nM]	IC50 (human TLR7) [nM]	SMILES
5.42	30900	2.47	CNC(=O)CN1CCC(c2nc3c(C(C)C)c(-c4cc(OC)c5ncnn5c4)[nH]c3s2)CC1 [Example 8, 2-(4-(6-isopropyl-5-(8-methoxy-[1,2,4]triazolo[1,5-a]pyridin-6-yl)-4H-pyrrolo[3,2-d]thiazol-2-yl)piperidin-1-yl)-N-methylacetamide]
3.14	7810	4.15	COc1cc(-c2[nH]c3sc(C4CCN(CC(C)(C)O)CC4)nc3c2C(C)C)cn2ncnc12 [Example 15, 1-(4-(6-isopropyl-5-(8-methoxy-[1,2,4]triazolo[1,5-a]pyridin-6-yl)-4H-pyrrolo[3,2-d]thiazol-2-yl)piperidin-1-yl)-2-methylpropan-2-ol]
3.05	18500	1.84	CC(C)c1c(-c2cn(C)c3ncccc23)[nH]c2sc(C3CCNCC3)nc12 [Example 3, 6-isopropyl-5-(1-methyl-1H-pyrrolo[2,3-b]pyridin-3-yl)-2-(piperidin-4-yl)-4H-pyrrolo[3,2-d]thiazole]
2.74	43500	3.09	COc1cc(-c2[nH]c3sc(C4CCN(CCS(C)(=O)=O)CC4)nc3c2C(C)C)cn2ncnc12 [Example 16, 6-isopropyl-5-(8-methoxy-[1,2,4]triazolo[1,5-a]pyridin-6-yl)-2-(1-(2-(methylsulfonyl)ethyl)piperidin-4-yl)-4H-pyrrolo[3,2-d]thiazole]
2.03	3330	5.04	COc1cc(-c2[nH]c3sc(C4CCN(CC(C)(C)C)CC4)nc3c2C(C)C)cn2ncnc12 [Example 13, 6-isopropyl-5-(8-methoxy-[1,2,4]triazolo[1,5-a]pyridin-6-yl)-2-(1-neopentylpiperidin-4-yl)-4H-pyrrolo[3,2-d]thiazole]
1.9	1330	1.37	COc1cc(-c2[nH]c3sc(C4CCN(C(C)C)CC4)nc3c2C(C)C)cn2ncnc12 [Example 10, 6-isopropyl-2-(1-isopropylpiperidin-4-yl)-5-(8-methoxy-[1,2,4]triazolo[1,5-a]pyridin-6-yl)-4H-pyrrolo[3,2-d]thiazole]
0.94	3840	1.92	COc1cc(-c2[nH]c3sc(C4CCN(CC5(C)COC5)CC4)nc3c2C(C)C)cn2ncnc12 [Example 14, 6-isopropyl-5-(8-methoxy-[1,2,4]triazolo[1,5-a]pyridin-6-yl)-2-(1-((3-methyloxetan-3-yl)methyl)piperidin-4-yl)-4H-pyrrolo[3,2-d]thiazole]
0.86	2150	1.59	COc1cc(-c2[nH]c3sc(C4CCN(C5CCOCC5)CC4)nc3c2C(C)C)cn2ncnc12 [Example 12, 6-isopropyl-5-(8-methoxy-[1,2,4]triazolo[1,5-a]pyridin-6-yl)-2-(1-(tetrahydro-2H-pyran-4-yl)piperidin-4-yl)-4H-pyrrolo[3,2-d]thiazole]
